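Step 1: Grow cells in 96-well plates. Step 2: Expose to compound for 48 hours at 5 concentrations. Step 3: Interpolate endpoints linearly; if unreached, use highest concentration. Abbreviation: GI50, concentration required for 50% inhibition of growth.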 Calls of active or inactive are those of the source. Cut-off read from the data, not from the text of the source: active = GI50 up to about 1.1 µM and inactive = higher.
Columns and labels:
Assay in all cases: inhibition of tumour cell growth, NCI panel, 48 h
CCRF-CEM = tested on: CCRF-CEM
HOP-92 = tested on: HOP-92
COLO 205 = tested on: COLO 205
NCI/ADR-RES = tested on: NCI/ADR-RES
IGROV-1 = tested on: IGROV-1
OVCAR-8 = tested on: OVCAR-8
MDA-MB-231 = tested on: MDA-MB-231
HCT-15 = tested on: HCT-15
PC-3 = tested on: PC-3
HL-60 = tested on: HL-60
HOP-62 = tested on: HOP-62
K562 = tested on: K562
SK-MEL-28 = tested on: SK-MEL-28
786-0 = tested on: 786-0
RPMI-8226 = tested on: RPMI-8226
M14 = tested on: M14
DU-145 = tested on: DU-145
SR = tested on: SR
SNB-75 = tested on: SNB-75
RXF 393 = tested on: RXF 393
SK-MEL-2 = tested on: SK-MEL-2
SNB-19 = tested on: SNB-19
UO-31 = tested on: UO-31
HCT-116 = tested on: HCT-116
MDA-MB-435 = tested on: MDA-MB-435
UACC-62 = tested on: UACC-62
A498 = tested on: A498
OVCAR-5 = tested on: OVCAR-5
MCF7 = tested on: MCF7
SF-539 = tested on: SF-539
OVCAR-3 = tested on: OVCAR-3
T47D = tested on: T47D
NCI-H522 = tested on: NCI-H522
EKVX = tested on: EKVX
SF-295 = tested on: SF-295
CAKI-1 = tested on: CAKI-1
SW-620 = tested on: SW-620
MDA-N = tested on: MDA-N
Malme-3M = tested on: Malme-3M
NCI-H460 = tested on: NCI-H460
NCI-H23 = tested on: NCI-H23
TK-10 = tested on: TK-10
SK-MEL-5 = tested on: SK-MEL-5
SF-268 = tested on: SF-268
SN12C = tested on: SN12C
MOLT-4 = tested on: MOLT-4
A549 = tested on: A549
U-251 = tested on: U-251
LOX IMVI = tested on: LOX IMVI
ACHN = tested on: ACHN
Hs-578T = tested on: Hs-578T
HT-29 = tested on: HT-29
KM12 = tested on: KM12
BT-549 = tested on: BT-549
UACC-257 = tested on: UACC-257
SK-OV-3 = tested on: SK-OV-3
HCC 2998 = tested on: HCC 2998
OVCAR-4 = tested on: OVCAR-4
NCI-H226 = tested on: NCI-H226

## CC(=O)OCCOCn1cc(C=O)c2ccccc21
CCRF-CEM
  GI50: > 100 µM (inactive)
HOP-92
  GI50: > 100 µM (inactive)
COLO 205
  GI50: > 100 µM (inactive)
NCI/ADR-RES
  GI50: > 100 µM (inactive)
IGROV-1
  GI50: > 100 µM (inactive)
OVCAR-8
  GI50: > 100 µM (inactive)
MDA-MB-231
  GI50: > 100 µM (inactive)
HCT-15
  GI50: > 100 µM
PC-3
  GI50: > 100 µM (inactive)
HL-60
  GI50: > 100 µM (inactive)
HOP-62
  GI50: > 100 µM (inactive)
K562
  GI50: > 100 µM (inactive)
SK-MEL-28
  GI50: > 100 µM (inactive)
786-0
  GI50: > 100 µM (inactive)
RPMI-8226
  GI50: > 100 µM (inactive)
M14
  GI50: > 100 µM (inactive)
DU-145
  GI50: > 100 µM (inactive)
SR
  GI50: > 100 µM (inactive)
SNB-75
  GI50: > 100 µM (inactive)
RXF 393
  GI50: > 100 µM (inactive)
SK-MEL-2
  GI50: > 100 µM (inactive)
SNB-19
  GI50: > 100 µM (inactive)
UO-31
  GI50: > 100 µM (inactive)
HCT-116
  GI50: > 100 µM (inactive)
MDA-MB-435
  GI50: > 100 µM (inactive)
UACC-62
  GI50: > 100 µM (inactive)
A498
  GI50: 1.95 µM (inactive)
OVCAR-5
  GI50: 67.5 µM (inactive)
MCF7
  GI50: > 100 µM (inactive)
SF-539
  GI50: > 100 µM (inactive)
OVCAR-3
  GI50: > 100 µM (inactive)
T47D
  GI50: > 100 µM (inactive)
NCI-H522
  GI50: 49.3 µM (inactive)
EKVX
  GI50: > 100 µM (inactive)
SF-295
  GI50: > 100 µM (inactive)
CAKI-1
  GI50: > 100 µM (inactive)
SW-620
  GI50: > 100 µM (inactive)
MDA-N
  GI50: > 100 µM (inactive)
Malme-3M
  GI50: > 100 µM (inactive)
NCI-H460
  GI50: 33.2 µM (inactive)
NCI-H23
  GI50: > 100 µM (inactive)
TK-10
  GI50: > 100 µM (inactive)
SK-MEL-5
  GI50: 75 µM (inactive)
SF-268
  GI50: > 100 µM (inactive)
SN12C
  GI50: > 100 µM (inactive)
MOLT-4
  GI50: > 100 µM (inactive)
A549
  GI50: > 100 µM (inactive)
U-251
  GI50: > 100 µM (inactive)
LOX IMVI
  GI50: > 100 µM (inactive)
ACHN
  GI50: > 100 µM (inactive)
Hs-578T
  GI50: > 100 µM (inactive)
HT-29
  GI50: > 100 µM (inactive)
KM12
  GI50: > 100 µM (inactive)
BT-549
  GI50: > 100 µM (inactive)
UACC-257
  GI50: > 100 µM (inactive)
SK-OV-3
  GI50: > 100 µM (inactive)
HCC 2998
  GI50: > 100 µM (inactive)

## COc1ccc(C(=O)c2ccc(-n3c4ccccc4c4ccc5c(c43)C(=O)C=CC5=O)cc2)cc1
CCRF-CEM
  GI50: 0.367 µM (active)
HOP-92
  GI50: 1.99 µM (inactive)
COLO 205
  GI50: 2.89 µM (inactive)
NCI/ADR-RES
  GI50: 2.62 µM (inactive)
IGROV-1
  GI50: 2.61 µM (inactive)
OVCAR-8
  GI50: 1.81 µM (inactive)
MDA-MB-231
  GI50: 1.94 µM (inactive)
HCT-15
  GI50: 1.9 µM
PC-3
  GI50: 1.5 µM (inactive)
HL-60
  GI50: 0.495 µM (active)
HOP-62
  GI50: 12.5 µM (inactive)
K562
  GI50: 0.676 µM (active)
SK-MEL-28
  GI50: 2.99 µM (inactive)
786-0
  GI50: 0.586 µM (active)
RPMI-8226
  GI50: 0.794 µM (active)
M14
  GI50: 2.53 µM (inactive)
DU-145
  GI50: 3.1 µM (inactive)
SR
  GI50: 1.32 µM (inactive)
SNB-75
  GI50: 3.66 µM (inactive)
RXF 393
  GI50: 0.845 µM (active)
SK-MEL-2
  GI50: 3.88 µM (inactive)
SNB-19
  GI50: 4.19 µM (inactive)
UO-31
  GI50: 0.52 µM (active)
HCT-116
  GI50: 0.92 µM (active)
MDA-MB-435
  GI50: 1.39 µM (inactive)
UACC-62
  GI50: 3.03 µM (inactive)
A498
  GI50: 1.58 µM (inactive)
OVCAR-5
  GI50: 19.5 µM (inactive)
MCF7
  GI50: 0.855 µM (active)
SF-539
  GI50: 2.61 µM (inactive)
OVCAR-3
  GI50: 1.14 µM (inactive)
T47D
  GI50: 1.06 µM (active)
NCI-H522
  GI50: 0.217 µM (active)
EKVX
  GI50: 1.86 µM (inactive)
SF-295
  GI50: 5.43 µM (inactive)
CAKI-1
  GI50: 0.164 µM (active)
SW-620
  GI50: 1 µM (active)
MDA-N
  GI50: 2.72 µM (inactive)
NCI-H460
  GI50: 4.61 µM (inactive)
NCI-H23
  GI50: 1.7 µM (inactive)
TK-10
  GI50: 1.43 µM (inactive)
SK-MEL-5
  GI50: 4.27 µM (inactive)
OVCAR-4
  GI50: 2.55 µM (inactive)
SF-268
  GI50: 0.647 µM (active)
SN12C
  GI50: 1.45 µM (inactive)
MOLT-4
  GI50: 0.348 µM (active)
A549
  GI50: 3.17 µM (inactive)
U-251
  GI50: 1.69 µM (inactive)
LOX IMVI
  GI50: 1.25 µM (inactive)
ACHN
  GI50: 0.8 µM (active)
NCI-H226
  GI50: 17.3 µM (inactive)
Hs-578T
  GI50: 1.69 µM (inactive)
HT-29
  GI50: 1.06 µM (active)
KM12
  GI50: 3.68 µM (inactive)
BT-549
  GI50: 3.21 µM (inactive)
UACC-257
  GI50: 2.54 µM (inactive)
SK-OV-3
  GI50: 13.7 µM (inactive)
HCC 2998
  GI50: 5.61 µM (inactive)

Source: ChEMBL document CHEMBL1201862, “PubChem BioAssay data set” (2004)
